Calls of active or inactive are those of the source. The rule behind the calls is not given here.
Tests used:
Rattus norvegicus [1] = assay: Neuroprotective activity in hypoxic-ischemia-induced neonatal Sprague-Dawley rat brain assessed as reduction brain infarction at 10 mg/kg, ip administered 15 mins prior to examination by microscopic analysis; format: functional, organism-based
Caspase-7 = molecular target: T1, Caspase-7 (Homo sapiens, UniProt P55210); assay: Inhibition of His-tagged human recombinant caspase 7 expressed in Escherichia coli using acetyl-Asp-Glu-Val-Asp-7- amido-4-methylcoumarin (Ac-DEVD-AMC) as substrate by fluorimetric assay
T1 sequence (P55210 whole entry): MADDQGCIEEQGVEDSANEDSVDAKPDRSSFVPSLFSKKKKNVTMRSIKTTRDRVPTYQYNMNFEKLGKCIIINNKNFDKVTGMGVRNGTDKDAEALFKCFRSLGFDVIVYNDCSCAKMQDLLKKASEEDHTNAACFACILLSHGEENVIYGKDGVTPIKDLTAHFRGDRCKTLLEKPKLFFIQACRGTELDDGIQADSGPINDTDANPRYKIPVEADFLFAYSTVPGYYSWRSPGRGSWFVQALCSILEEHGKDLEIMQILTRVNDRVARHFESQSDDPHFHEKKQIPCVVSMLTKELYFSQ

Rattus norvegicus [2] = assay: Neuroprotective activity in hypoxic-ischemia-induced neonatal Sprague-Dawley rat brain assessed as reduction brain infarction at 20 mg/kg, ip administered 15 mins prior to examination by microscopic analysis; format: functional, organism-based
Rattus norvegicus [3] = assay: Neuroprotective activity in hypoxic-ischemic-induced neonatal Sprague-Dawley rat brain assessed as reduction brain infarction at 30 mg/kg, ip administered 15 mins prior to examination by microscopic analysis; format: functional, organism-based
Rattus norvegicus [4] = assay: Neuroprotective activity in hypoxic-ischemic neonatal Sprague-Dawley rat brain assessed as distribution of neurons in cortex at 30 mg/kg, ip administered 15 mins prior to examination measured after 48 hrs by hematoxylin/eosin staining based microscopic analysis; format: functional, organism-based
Rattus norvegicus [5] = assay: Neuroprotective activity in hypoxic-ischemic Sprague-Dawley rat brain assessed as regular shape of nucleus at 30 mg/kg, ip administered 15 mins prior to examination measured after 48 hrs by transmission electron microscopic analysis; format: functional, organism-based
Rattus norvegicus [6] = assay: Neuroprotective activity in hypoxic-ischemic Sprague-Dawley rat brain assessed as reduction in disruption of cell organelles at 30 mg/kg, ip administered 15 mins prior to examination measured after 48 hrs by transmission electron microscopic analysis; format: functional, organism-based
Rattus norvegicus [7] = assay: Neuroprotective activity in hypoxic-ischemic ip dosed neonatal Sprague-Dawley rat brain assessed as decrease in MDA levels administered 15 mins prior to examination measured after 48 hrs by thiobarbituric acid method; format: functional, organism-based
Rattus norvegicus [8] = assay: Neuroprotective activity in hypoxic-ischemic ip dosed neonatal Sprague-Dawley rat brain assessed as increase in SOD levels administered 15 mins prior to examination measured after 48 hrs by microplate reader based method; format: functional, organism-based
Rattus norvegicus [9] = assay: Neuroprotective activity in hypoxic-ischemic ip dosed neonatal Sprague-Dawley rat brain assessed as increase in GSH-Px levels administered 15 mins prior to examination measured after 48 hrs by microplate reader based method; format: functional, organism-based
Rattus norvegicus [10] = assay: Neuroprotective activity in hypoxic-ischemic ip dosed neonatal Sprague-Dawley rat brain assessed as increase in CAT levels administered 15 mins prior to examination measured after 48 hrs by microplate reader based method; format: functional, organism-based
Rattus norvegicus [11] = assay: Neuroprotective activity in hypoxic-ischemic ip dosed neonatal Sprague-Dawley rat brain assessed as increase in T-AOC levels administered 15 mins prior to examination measured after 48 hrs by microplate reader based method; format: functional, organism-based
Rattus norvegicus [12] = assay: Neuroprotective activity in hypoxic-ischemic neonatal Sprague-Dawley rat brain assessed as reduction in interstitial edema at 30 mg/kg, ip administered 15 mins prior to examination measured after 48 hrs by hematoxylin/eosin staining based microscopic analysis; format: functional, organism-based
Rattus norvegicus [13] = species: Rattus norvegicus; conditions: Sprague-Dawley, Brain, 30 mg/kg
Description: Neuroprotective activity in hypoxic-ischemic neonatal Sprague-Dawley rat brain assessed as inhibition of elevated caspase 3 expression levels at 30 mg/kg, ip administered 15 mins prior to examination measured after 48 hrs by Western blot analysis

Caspase-3 = molecular target: T2, Caspase-3 (Homo sapiens, UniProt P42574); assay: Inhibition of His-tagged human recombinant caspase 3 expressed in Escherichia coli using acetyl-Asp-Glu-Val-Asp-7- amido-4-methylcoumarin (Ac-DEVD-AMC) as substrate by fluorimetric assay
T2 sequence (P42574 whole entry): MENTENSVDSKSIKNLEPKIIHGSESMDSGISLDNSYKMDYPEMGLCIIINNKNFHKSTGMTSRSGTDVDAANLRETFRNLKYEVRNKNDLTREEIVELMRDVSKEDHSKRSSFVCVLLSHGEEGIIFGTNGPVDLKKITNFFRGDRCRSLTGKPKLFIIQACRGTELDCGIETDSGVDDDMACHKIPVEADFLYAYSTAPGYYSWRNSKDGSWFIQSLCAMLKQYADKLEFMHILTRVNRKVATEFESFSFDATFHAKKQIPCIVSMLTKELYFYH

IC50 (Caspase-7) [µM] | IC50 (Caspase-3) [µM] | SMILES | also measured
> 200 | – | Cc1nc(-c2ccc(F)cc2)ccc1C(=O)N/N=C1\C(=O)N(C)c2ccccc21 | Activity (Rattus norvegicus [1]): Active; Activity (Rattus norvegicus [2]): Active; Activity (Rattus norvegicus [3]): Active; Activity (Rattus norvegicus [4]): Active; Activity (Rattus norvegicus [5]): Active; Activity (Rattus norvegicus [6]): Active; Activity (Rattus norvegicus [7]): Active; Activity (Rattus norvegicus [8]): Dose-dependent effect; Activity (Rattus norvegicus [9]): Dose-dependent effect; Activity (Rattus norvegicus [10]): Dose-dependent effect; Activity (Rattus norvegicus [11]): Dose-dependent effect; Activity (Rattus norvegicus [12]): Active; inhibition (Rattus norvegicus [13]): Active
> 200 | 547 | COc1cccc(-c2ccc(C(=O)N/N=C3\C(=O)N(C)c4ccccc43)c(C)n2)c1 | –
– | 456 | Cc1nc(-c2ccccc2)ccc1C(=O)N/N=C1\C(=O)N(C)c2ccccc21 | –
> 200 | 599 | COc1ccc(-c2ccc(C(=O)N/N=C3\C(=O)N(C)c4ccccc43)c(C)n2)cc1OC | –
> 200 | 487 | COc1ccc(-c2ccc(C(=O)N/N=C3\C(=O)N(C)c4ccccc43)c(C)n2)cc1 | –
– | 202 | Cc1nc(-c2ccc([N+](=O)[O-])cc2)ccc1C(=O)N/N=C1\C(=O)N(C)c2ccccc21 | –
0.0604 | – | CC(=O)N[C@@H](CC(=O)O)C(=O)N[C@@H](CCC(=O)O)C(=O)N[C@H](C(=O)N[C@H](C=O)CC(=O)O)C(C)C | –
> 200 | 552 | COc1ccccc1-c1ccc(C(=O)N/N=C2\C(=O)N(C)c3ccccc32)c(C)n1 | –
– | 310 | Cc1cccc(-c2ccc(C(=O)N/N=C3\C(=O)N(C)c4ccccc43)c(C)n2)c1 | –
– | 674 | COc1cc(-c2ccc(C(=O)N/N=C3\C(=O)N(C)c4ccccc43)c(C)n2)cc(OC)c1OC | –
– | 122 | Cc1nc(-c2ccc(Br)cc2)ccc1C(=O)N/N=C1\C(=O)N(C)c2ccccc21 | –
– | 375 | Cc1ccc(-c2ccc(C(=O)N/N=C3\C(=O)N(C)c4ccccc43)c(C)n2)cc1 | –
– | 132 | Cc1nc(-c2ccccc2Br)ccc1C(=O)N/N=C1\C(=O)N(C)c2ccccc21 | –
> 200 | – | Cc1nc(-c2cccc(Cl)c2)ccc1C(=O)N/N=C1\C(=O)N(C)c2ccccc21 | –
– | 130 | Cc1nc(-c2cccc(Br)c2)ccc1C(=O)N/N=C1\C(=O)N(C)c2ccccc21 | –
– | 278 | Cc1nc(-c2cccc([N+](=O)[O-])c2)ccc1C(=O)N/N=C1\C(=O)N(C)c2ccccc21 | –
> 200 | 297 | Cc1nc(-c2ccccc2[N+](=O)[O-])ccc1C(=O)N/N=C1\C(=O)N(C)c2ccccc21 | –
– | 351 | Cc1ccccc1-c1ccc(C(=O)N/N=C2\C(=O)N(C)c3ccccc32)c(C)n1 | –

From ChEMBL document CHEMBL3804780, “Protective effect of novel substituted nicotine hydrazide analogues against hypoxic brain injury in neonatal rats via inhibition of caspase” (Bioorg Med Chem Lett, 2016)
